Assay results as given in patent US6534659B2, “Sufidomaidocarboxylic acids, method for production thereof, and use therefor” (Nippon Shokubai Co., Ltd., priority 2000, dated 2003).

Legend:
[1] = Ability to inhibit corrosion by polarization resistance (Rp), low-carbon steel electrodes (X65); conditions: Electrode X65
[2] = Ability to inhibit corrosion by polarization resistance (Rp), iron electrodes; parameters: ability to inhibit corrosion: concentration or dose not given beside the values; conditions: for Ability to inhibit corrosion After 20 min. / Ability to inhibit corrosion After 15 hrs / Ability to inhibit corrosion Peak: Electrode Fe; for ability to inhibit corrosion / Rp: iron electrode, sodium salt

CC1(C)SCCN1C(=O)c1ccccc1C(=O)O [Example 1, N-(2-carboxybenzoyl)-2,2-dimethylthiazolidine]
Ability to inhibit corrosion After 20 min. [1]: 71.0%
Ability to inhibit corrosion After 15 hrs [1]: 94.7%
Ability to inhibit corrosion Peak [1]: 97.2%
Ability to inhibit corrosion After 20 min. [2]: 48%
Ability to inhibit corrosion After 15 hrs [2]: 96.3%
Ability to inhibit corrosion Peak [2]: 98.5%
ability to inhibit corrosion ([2]; after the elapse of 20 minutes): 47.6%
ability to inhibit corrosion ([2]; after the elapse of 15 hours): 96.3%
ability to inhibit corrosion ([2]; peak): 98.5%

CC1(C)SCCN1C(=O)C=CC(=O)O [Example 2, N-(2-carboxylvinylcarbonyl)-2,2-dimethylthiazolidine]
Rp ([2]; after the elapse of 20 minutes): 200 Ω
ability to inhibit corrosion ([2]; after the elapse of 20 minutes): 55.0%
Rp ([2]; after the elapse of 15 hours): 2000 Ω
ability to inhibit corrosion ([2]; after the elapse of 15 hours): 95.5%
Rp ([2]; peak): about 4800 Ω
ability to inhibit corrosion ([2]; peak): 98.1%

CC1(C)SCCN1C(=O)C1CCCCC1C(=O)O (stereo not drawn) [Example 4, N-(2-carboxylcyclohexylcarbonyl)-2,2-dimethylthiazolidine]
Rp ([2]; after the elapse of 20 minutes): 640 Ω
ability to inhibit corrosion ([2]; after the elapse of 20 minutes): 95.9%
Rp ([2]; after the elapse of 15 hours): 5300 Ω
ability to inhibit corrosion ([2]; after the elapse of 15 hours): 98.3%
Rp ([2]; peak): about 7450 Ω
ability to inhibit corrosion ([2]; peak): 98.8%

CC1(C)SCCN1C(=O)CCC(=O)O [Example 3, N-(2-carboxylethylcarbonyl)-2,2-dimethylthiazolidine]
Ability to inhibit corrosion After 20 min. [2]: 71.4%
Ability to inhibit corrosion After 15 hrs [2]: 97.8%
Ability to inhibit corrosion Peak [2]: 98.1%
ability to inhibit corrosion ([2]; after the elapse of 25 minutes): 71.4%
ability to inhibit corrosion ([2]; after the elapse of 15 hours): 97.8%
ability to inhibit corrosion ([2]; peak): 98.1%
